Results reported in patent publication US9814801B2, “Thiol-ene polymerization with vinylesters and vinylcarbonate” (Depuy Synthes Products, Inc., priority 2011, dated 2017).

Tests used:
fibroblast cell culture = assay: Monomer cytotoxicity, Alamar Blue Assay in fibroblast cell culture; conditions: monomer concentration at which resorufin production was reduced to 50% of control, n=3
Source text: This assay incorporated a fluorometric/colormetric growth indicator based on detection of metabolic activity.

[1] = Photoreactivity by photo-DSC: time to reach the maximum of the polymerization heat; assay type: physicochemical
Procedure: The compositions which are embodiments of the present invention were compared to acrylate and methacrylate based polymer systems as comparative examples.
The reactivity towards photopolymerization was tested with the help of photo-DSC (differential scanning calorimetry). The measurements were carried out using 2 wt % of 2-hydroxy-1-[4-(2-hydroxyethoxy)phenyl]-2-methyl-1-propanone (Irgacure 2959, Ciba SC) as photoinitiator.

[2] = test system: osteoblastic MC3T3-E1 cells; assay: in vitro; conditions: read-out: LC50; MC3T3-E1 cells cultured five days with monomer; n=3
Procedure: (§1) The effects of each of vinyl ester 4V, acrylate 4A, and meth-acrylate 4M on osteoblastic MC3T3-E1 cells in vitro was tested by the MTT assay method. The osteoblastic MC3T3-E1 cells were cultured for five days in the presence of each of vinyl ester (4V), acrylate (4A), and meth-acrylate (4M).
(§2) Cytotoxicity of the newly synthesized monomers and the reference substances together with the thiols and photoinitiator used was examined in osteoblast cell culture by using an Alamar Blue Assay. This assay incorporates a fluorometric/colormetric growth indicator based on the detection of metabolic activity. 1M solutions of the monomers, thiols, and photoinitiator in DMSO (HYBRI-MAX®, Sigma) were prepared. […] For experiments, cells [osteoblasts taken of the strain C57BL/6 of mus musculus (ATCC Catalog No. CRL-2593, MC3T3-E1, Subclone 4)] were cultured in 100 μl DMEM Medium supplemented with 10% FCS, 100 U/ml Penicillin, and 100 μg/ml Streptomycin, in 96-well plates at a density of 6.4×10^3 cells well^−1 for 24 hours in humidified air (95% relative humidity) with 5% CO2 at 37° C. The next day, the cells were treated with 100 μL of the different concentrations of the monomers for 5 days in triplicates. 10 μL of resazurin were added and the cells incubated for 4 hours at 37° C. The fluorescence intensity was measured for excitation at 530 nm and emission at 580 nm and compared to untreated cells (cells+medium). As control groups cells treated with 1% DMSO-solution, a blank value, and PBS-puffer were used.

in vitro = assay: in vitro
Procedure: as §1, §2

[3] = Butanediol monomer series, 0% TMP700
[4] = Butanediol monomer series, 0% TT
[5] = Butanediol monomer series, 10% TMP700
[6] = Butanediol monomer series, 10% TT
[7] = Butanediol monomer series, 20% TMP700
[8] = Butanediol monomer series, 20% TT
[9] = Butanediol monomer series, 40% TMP700
[10] = Butanediol monomer series, 40% TT
[11] = PEG200 monomer series, 0% TMP700
[12] = PEG200 monomer series, 10% TMP700
[13] = PEG200 monomer series, 20% TMP700
[14] = PEG200 monomer series, 40% TMP700
[15] = PEG600 monomer series, 0% TMP700
[16] = PEG600 monomer series, 10% TMP700
[17] = PEG600 monomer series, 20% TMP700
[18] = PEG600 monomer series, 40% TMP700

| Compound | IC50 [mM] (TC50 values of various monomers) (fibroblast cell culture) | time to reach the maximum of the polymerization heat [1, 3] | time to reach the maximum of the polymerization heat [1, 4] | time to reach the maximum of the polymerization heat [1, 5] | time to reach the maximum of the polymerization heat [1, 6] | time to reach the maximum of the polymerization heat [1, 7] | time to reach the maximum of the polymerization heat [1, 8] | time to reach the maximum of the polymerization heat [1, 9] | time to reach the maximum of the polymerization heat [1, 10] | further results |
| --- | --- | --- | --- | --- | --- | --- | --- | --- | --- | --- |
| C=COC(=O)CCCCC(=O)OC=C [AVE, adipic acid divinyl ester] | 10 mM | 4.9 s | 4.9 s | 8.4 s | 7.7 s | 2.9 s | 5.8 s | 2.1 s | 2.1 s |  |
| C=CC(=O)OCCCCOC(=O)C=C [Butanediol Acrylate, 1,4-Butanediol-di-acrylate] |  | 2.7 s | 2.7 s | 2.9 s | 2.5 s | 3.5 s | 2.8 s | 3.5 s | 2.7 s | CC50 [2]: < 160 µM |
| C=C(C)C(=O)OCCCCOC(=O)C(=C)C [Butanediol Methacrylate, 1,4-Butanediol di-methacrylat] |  | 28.6 s | 28.6 s | 90.2 s | 87.6 s | 85.4 s | 83.8 s | 75.0 s | 55.0 s | CC50 (in vitro): 1300 µM |
| C=COC(=O)OCCCCOC(=O)OC=C [Butanediol Vinyl carbonate, 1,4-butanediol divinyl carbonate] |  | 3.3 s | 3.3 s | 6.1 s | 7.1 s | 4.4 s | 3.0 s | 2.1 s | 2.4 s |  |
| O=C(CCS)OCC(COC(=O)CCS)(COC(=O)CCS)COC(=O)CCS [PTM, pentaerythritol tetra(3-mercaptopropionate)] | 10 mM |  |  |  |  |  |  |  |  | CC50 at 5 days (in vitro; C57BL/6, mouse, osteoblastic MC3T3-E1 cells (Subclone 4, ATCC CRL-2593)): > 10000 µM |
| C=CC(=O)OCCOCCOCCOCCOC(=O)C=C [TTEGDAc, Tetra(ethylene glycol) diacrylate] | <0.16 mM |  |  |  |  |  |  |  |  | time to reach the maximum of the polymerization heat [1, 11]: 2.6 s; time to reach the maximum of the polymerization heat ([1]; PEG200 monomer series, 0% TT): 2.6 s; time to reach the maximum of the polymerization heat [1, 12]: 3.6 s; time to reach the maximum of the polymerization heat ([1]; PEG200 monomer series, 10% TT): 3.5 s; time to reach the maximum of the polymerization heat [1, 13]: 3.6 s; time to reach the maximum of the polymerization heat ([1]; PEG200 monomer series, 20% TT): 3.3 s; time to reach the maximum of the polymerization heat [1, 14]: 3.4 s; time to reach the maximum of the polymerization heat ([1]; PEG200 monomer series, 40% TT): 3.3 s |
| C=C(C)C(=O)OCCOCCOCCOCCOC(=O)C(=C)C [TTEGDMA, Tetra(ethylene glycol) dimethacrylate] | <0.16 mM |  |  |  |  |  |  |  |  | time to reach the maximum of the polymerization heat [1, 11]: 12.6 s; time to reach the maximum of the polymerization heat ([1]; PEG200 monomer series, 0% TT): 12.6 s; time to reach the maximum of the polymerization heat [1, 12]: 56.0 s; time to reach the maximum of the polymerization heat ([1]; PEG200 monomer series, 10% TT): 51.5 s; time to reach the maximum of the polymerization heat [1, 13]: 55.1 s; time to reach the maximum of the polymerization heat ([1]; PEG200 monomer series, 20% TT): 58.3 s; time to reach the maximum of the polymerization heat [1, 14]: 46.9 s; time to reach the maximum of the polymerization heat ([1]; PEG200 monomer series, 40% TT): 54.0 s |
| C=COC(=O)COCCOCCOCC(=O)OC=C [TUVE, ω,ω′-3,6,9-trioxaundecanedioic acid divinyl ester] | 2.5 mM |  |  |  |  |  |  |  |  |  |
| Poly(ethylene glycol) diacrylate, MG 600 [PEG600 Acrylate] |  |  |  |  |  |  |  |  |  | time to reach the maximum of the polymerization heat [1, 15]: 3.2 s; time to reach the maximum of the polymerization heat ([1]; PEG600 monomer series, 0% TT): 3.2 s; time to reach the maximum of the polymerization heat [1, 16]: 3.8 s; time to reach the maximum of the polymerization heat ([1]; PEG600 monomer series, 10% TT): 3.2 s; time to reach the maximum of the polymerization heat [1, 17]: 3.7 s; time to reach the maximum of the polymerization heat ([1]; PEG600 monomer series, 20% TT): 3.0 s; time to reach the maximum of the polymerization heat [1, 18]: 3.2 s; time to reach the maximum of the polymerization heat ([1]; PEG600 monomer series, 40% TT): 3.0 s |
| Poly(ethylene glycol) dimethacrylate, MG 600 [PEG600 Methacrylate] |  |  |  |  |  |  |  |  |  | time to reach the maximum of the polymerization heat [1, 15]: 10.5 s; time to reach the maximum of the polymerization heat ([1]; PEG600 monomer series, 0% TT): 10.5 s; time to reach the maximum of the polymerization heat [1, 16]: 27.0 s; time to reach the maximum of the polymerization heat ([1]; PEG600 monomer series, 10% TT): 26.3 s; time to reach the maximum of the polymerization heat [1, 17]: 31.2 s; time to reach the maximum of the polymerization heat ([1]; PEG600 monomer series, 20% TT): 31.2 s; time to reach the maximum of the polymerization heat [1, 18]: 30.6 s; time to reach the maximum of the polymerization heat ([1]; PEG600 monomer series, 40% TT): 24.9 s |
